The subject of one data set is Notch2. The experiment in a line: Inhibition of Constitutive Notch Signaling. In kind it is cell-based.
The subject of another data set is Notch3. The experiment in a line: Inhibition of Constitutive Notch Signaling. In kind it is cell-based.
Data set [1] in a line: Tolerability of monotherapy and combination therapy in naive mice. As to conditions: Compound (1) 3.0 mg/kg PO qdx4.
Description: Naïve mice were randomly divided into 17 groups (n=5). Control group was administered vehicle once every day for four consecutive days (qdx4). […] Dosing was initiated on Day 0. Animal weight was measured every day for two weeks.
A further data set has as its system Notch4. The experiment in a line: Inhibition of Constitutive Notch Signaling. In kind it is cell-based.

pIC50: −log10 of the molar value.

The pIC50 is the IC50 on a negative log10 scale, so that one unit is a factor of ten. A lower pIC50 goes with a large IC50.

In the case of `CN1C(=O)[C@@H](NC(=O)[C@H](CCC(F)(F)F)[C@H](CCC(F)(F)F)C(N)=O)N=C(c2ccccc2)c2ccccc21` [Compound (1), (2R,3S)—N-((3S)-1-methyl-2-oxo-5-phenyl-2,3-dihydro-1H-1,4-benzodiazepin-3-yl)-2,3-bi s(3,3,3-trifluoropropyl)succinamide], the pIC50 is 9.15 in the data set on Notch2, 8.47 in the data set on Notch3 and 8.54 in the data set with Notch4. For the same compound, in data set [1], the tolerability entry was “good tolerability”.

Values taken from patent publication US20230381196A1, “COMPOSITIONS COMPRISING BISFLUOROALKYL-1,4-BENZODIAZEPINONE COMPOUNDS FOR TREATING ADENOID CYSTIC CARCINOMA” (AYALA PHARMACEUTICALS INC., priority 2020, published 2023).
